Laboratory results reported in patent US4975433A, “Aminomethyl derivatives of biologically active substances and enhanced delivery thereof across topical membranes” (priority 1989, dated 1990).
≈ marks a conversion by molar mass, not a printed value. Where “and” joins values, the source holds several entries; their conditions need not be identical. Identical values can stand only once. Marks after values point to notes of the source that are not given here. One block for each compound: values may come before it.

Assays:
[1] = stability of the bases in water, isopropyl myristate and moisture (NMR, TLC); format: physicochemical; details: for qualitative order of stability to atmospheric moisture: IPM solution, NMR; for stability in IPM: 24 hours after sonication for 3 hours; for degraded at 48 h: isopropyl myristate, atmospheric moisture, room temperature, two days, read-out: decomposition of base prodrugs in IPM filtrates
Experimental: All the suspensions or solutions were prepared by sonicating mixtures of the drug or prodrugs in the appropriate solvent in sealed flasks for 3 hr. The sealed solutions or suspensions that resulted were allowed to sit at room temperature for 24 hr, then they were briefly (15 sec.) vortexed and 0.50 ml samples were removed and applied to the membranes (area=4.9 cm^2). After an additional 24 hr the remaining sealed suspensions of the prodrugs were filtered, the filtrates and residues were analyzed by inspection of their NMR spectra and TLC to determine if any decomposition of the prodrugs had taken place (none had), and the filtrates were analyzed by UV spectroscopy to determine if the amount of prodrug still in solution corresponded to the solubilities determined in separate experiments (they did). The filtrates were analyzed neat while the residues were dissolved in CDCl3 and the spectra were analyzed for the appearance of the C8 ---H absorption of theophylline at δ7.77 and the C6 ---H absorption of 5-FU at δ7.7. TLC analyses were run using ether as the eluents. The remaining suspensions of the parent drugs were also filtered and the filtrates were analyzed by UV spectroscopy to determine if the amount of drug still in solution corresponded to the solubilities determined in separate experiments (they did).
The derivatives are not stable in the presence of water. […] NMR experiments also supported the low stability of the derivatives in water. Solutions of the bases were prepared in dry DMSO-d6 and then D2 O was added stepwise to the solutions. […] Similar, decomposition of the bases was also observed in other protic solvents such as methanol and propylene glycol.
On the other hand, the stability of the bases in IPM was variable.
When the IPM filtrates, which were used to determine the IPM solubilities of II and III were exposed to atmospheric moisture at room temperature for two days, 50-80% decomposition of the base prodrugs in solution occurred and precipitation of theophylline resulted as determined by analysis of NMR spectra of the solutions and precipitates. The IPM solutions of the other bases eventually decomposed 1-10% upon prolonged exposure (two weeks) to atmospheric moisture. Although no quantitative data were determined, the qualitative order of stability of the theophylline bases to exposure to atmospheric moisture in IMP solution was V=VI>>IV>III>II,as determined by analysis of NMR spectra of their IPM solutions and precipitates from IPM solutions.

[2] = solubilities of prodrugs and parent drugs in selected solvents (Example 8); details: for trend in IPM solubility: NMR of neat filtrates, UV
[3] = half-lives of hydrolysis of cytosine and 5-fluorocytosine derivatives in phosphate buffer; details: for half-life: phosphate buffer; for pH dependence of hydrolysis rate: basic pH
[4] = lipid and aqueous solubilities of 5-FC and its derivatives; format: physicochemical; details: for solubility / Solubility, water: distilled water (pH 5.5), approximate, decomposing; for solubility at 48 h / Solubility, IPM: isopropyl myristate; for solubility at 48 h: organic solvent or mixture, read-out: Solubility, IPM; for Solubility, IPM: 2880 min; for IPM solubility relative to other compound: XIV vs 5-FC molar basis, XIIb vs XIIa
[5] = mouse; for Kp, initial phase: 100000 uM
Experimental: The diffusion experiments were performed in triplicate for each compound. Three female, hairless mice were sacrificed by cervical dislocation, and the entire dorsal skin removed by blunt dissection from the underlying tissues. The skins were secured with a rubber gasket to the diffusion cell, with the dermis in contact with the receptor phase. The receptor side of the cell was filled with isotonic phosphate buffer (pH 73 at 32°, 0.05 M, μ=0.15) with 1% formaldehyde added to inhibit microbial growth. The receptor phase was kept at a constant temperature of 32° and was stirred magnetically.
The donor phases were applied as suspensions (0.5 ml, 0.1 M) to the skin surface. […] Each sample was replaced by an equal amount of fresh buffer.
These last two steps were used to determine the mass balance. This part of the diffusion cell study is termed the first application.
Samples were obtained using the same schedule described above.
The slopes for each phase of the plotted lines were obtained by linear regression analysis (r>0.990); the slopes were then divided by the surface area of the diffusion cells (4.9 cm^2) to obtain a value for flux (J) in mg/cm^2 /h. The reported fluxes are the average flux of the three diffusion cells.

[6] = lipid and aqueous solubilities of 5-IDC and its prodrugs; format: physicochemical; details: for solubility at 48 h: isopropyl myristate, organic solvent or mixture, read-out: Solubility, IPM
Experimental: The approximate aqueous solubilities were determined by the addition of 100 mg of solid to 1 ml distilled water (pH 5.5). Water was added until all the solid dissolved.
The lipid solubilities of 5-iodo-2'-deoxycytidine and its N-Mannich base prodrugs were determined in isopropyl myristate. Three suspensions of the drug or prodrugs were stirred for 48 hours and then filtered. The filtrates were then diluted with either methanol, for the parent drug or dry acetonitrile, for the N-Mannich base prodrugs. The concentration of compound in solution was determined by monitoring the UV absorption at 294 nm (ε=5.79×10^3 1/mole) for 5-IDC, 333 nm (ε=2.46×10^4) for the formamidine derivative and 296 nm for the derivatives. The aqueous solubilities were obtained as described above.

[7] = flux of theophylline in PG after first application of 5-IDC or prodrug (second application); format: in vitro ADME, hairless mice
Experimental: A suspension of theophylline in PG (Th/PG; 0.5 ml, 0.4M) was then applied to each diffusion cell. […] This phase of the diffusion cell experiment is labelled the second application.
The slopes for each phase of the plotted lines were obtained by linear regression analysis; the slopes were then divided by the surface area of the diffusion cells (4.9 cm^2) to obtain a value for flux (J) in mg/cm^2 /h. The reported fluxes are the average flux for the three cells.

[8] = isopropyl myristate, organic solvent or mixture, Solubility, IPM, stirred at room temperature 24 hr
[9] = water, pH 7, water, Solubility, water (apparent)
[10] = pH 7.1, Half-life of hydrolysis, cytosine derivatives
[11] = isopropyl myristate, organic solvent or mixture, Solubility, IPM, suspensions sonicated for 3 hr
[12] = pH 7.1, Half-life of hydrolysis, 5-FC derivatives

SMILES: O=c1nc(NCN2CCOCC2)ccn1CN1CCOCC1 [IXb, Bis-N^4,1-(4'-morpholinyl)methylcytosine hydrate]
half-life [3, 10]: 9.72 min

SMILES: Cn1c(=O)c2[nH]cnc2n(C)c1=O [I]
solubility ([2]; isopropyl myristate, organic solvent or mixture): 95 µg/mL (≈ 0.527 mM) | solubility ([2]; propylene glycol, organic solvent or mixture): 16200 µg/mL (≈ 89.9 mM)

SMILES: O=c1nc(NCN2CCCCC2)ccn1CN1CCCCC1 [VIII, Bis-N^4,1-(1'-piperidinyl)methylcytosine]
half-life [3, 10]: 1.42 min

SMILES: O=c1c(F)cn(CN2CCOCC2)c(=O)n1CN1CCOCC1 [VIII]
solubility [2, 11]: 11800 µg/mL (≈ 35.9 mM) | solubility [2, 9]: > 100000 µg/mL

SMILES: CN(C)CNc1ccn(CN(C)C)c(=O)n1 [X, Bis-N^4,1-(dimethylamino)methylcytosine hydrate]
half-life [3, 10]: 1 min

SMILES: CN1CCN(CNc2ccn(CN3CCN(C)CC3)c(=O)n2)CC1 [XI, Bis-N^4,1-(4'-methyl-1'-piperazinyl)methylcytosine hydrate]
half-life [3, 10]: 27.2 min

SMILES: O=c1nc(NCN2CCCCC2)c(F)cn1CN1CCCCC1 [XIIa, bis-N^4,1-(1'-piperidinyl)methyl-5-fluorocytosine]
Solubility, water [4]: 10 mg/ml and 0.03 M | Solubility, IPM ([4]; ±SD): 5.0 (0.9) mg/ml × 10^2 | Solubility, IPM [4]: 1.6 M(× 10^4) | Kp, steady-state phase [5]: 1671 cm/h (× 10^3) | half-life [3, 12]: 0.89 min

SMILES: O=c1nc(NCN2CCCCC2)c(F)cn1CN1CCCCC1 [XIIb, Bis-N^4,1-(1'-piperidinyl)methyl-5-fluorocytosine]
IPM solubility relative to other compound [4]: twice | Solubility, water [4]: 25 mg/ml and 0.08 M | Solubility, IPM ([4]; ±SD): 12.0 (0.5) mg/ml × 10^2 | Solubility, IPM [4]: 3.7 M(× 10^4) | Kp, steady-state phase [5]: 716 cm/h (× 10^3) | Kp, initial phase [5]: 174 cm/h (× 10^3) | Half-life of hydrolysis, 5-FC derivatives ([3]; pH 7.1 phosphate buffer 0.05 M, 24°): 0.90(0.01) min and 0.90 min | half-life ([3]; pH 6, Half-life of hydrolysis): 0.86 min | half-life ([3]; pH 8, Half-life of hydrolysis): 0.79 min

SMILES: CCN(CC)CNc1nc(=O)n(CN(CC)CC)cc1F [XIV, Bis-N^4,1-(diethylamino)methyl-5-fluorocytosine hydrate]
IPM solubility relative to other compound [4]: approximately 230 times | solubility [4]: > 100000 µg/mL and > 300000 µM | solubility at 48 h [4]: 9100 µM | solubility at 48 h ([4]; ±SD): 2710 µg/mL | half-life [3, 12]: 0.1 min

SMILES: O=c1nc(NCN2CCCC2)c(F)cn1CN1CCCC1 [XV, Bis-N^4,1-(1'-pyrrolidyl)methyl-5-fluorocytosine hydrate]
solubility [4]: > 100000 µg/mL and > 300000 µM | solubility at 48 h [4]: 610 µM | solubility at 48 h ([4]; ±SD): 180 µg/mL | pH dependence of hydrolysis rate [3]: faster | half-life ([3]; pH 6, Half-life of hydrolysis): 1.01 min | half-life [3, 12]: 1.05 min | half-life ([3]; pH 8, Half-life of hydrolysis): 0.66 min

SMILES: O=c1nc(NCN2CCOCC2)c(F)cn1CN1CCOCC1 [XVI, Bis-N^4,1-(4'-morpholinyl)methyl-5-fluorocytosine hydrate]
solubility [4]: 25000 µg/mL and 80000 µM | solubility at 48 h [4]: 350 µM | solubility at 48 h ([4]; ±SD): 180 µg/mL | Kp, steady-state phase [5]: 213 cm/h (× 10^3) | Kp, initial phase [5]: 73.9 cm/h (× 10^3) | pH dependence of hydrolysis rate [3]: hydrolyzed slower at basic pH | half-life ([3]; pH 6, Half-life of hydrolysis): 1.19 min | half-life [3, 12]: 9.1 min | half-life ([3]; pH 8, Half-life of hydrolysis): 34.2 min

SMILES: CN1CCN(CNc2nc(=O)n(CN3CCN(C)CC3)cc2F)CC1 [XVII, Bis-N^4,1-(4'-methyl-1'piperazinyl)methyl-5-fluorocytosine hydrate]
solubility [4]: > 100000 µg/mL and > 300000 µM | solubility at 48 h [4]: 220 µM | solubility at 48 h ([4]; ±SD): 71 µg/mL | Kp, steady-state phase [5]: 919 cm/h (× 10^3) | Kp, initial phase [5]: 67.3 cm/h (× 10^3) | pH dependence of hydrolysis rate [3]: hydrolyzed slower at basic pH | half-life ([3]; pH 6, Half-life of hydrolysis): 20.1 min | half-life [3, 12]: 26.3 min | half-life ([3]; pH 8, Half-life of hydrolysis): 28.5 min

SMILES: O=c1nc(NCN2CCCCC2)c(I)cn1[C@H]1C[C@H](O)[C@@H](CO)O1 [XXIIa, N^4-(1"-piperidinyl)methyl-5-iodo-2'-deoxycytidine hydrate]
solubility at 48 h [6]: 62 µM | solubility at 48 h ([6]; ±SD): 28 µg/mL | solubility ([6]; pH 5.5, water, apparent): 100000 µg/mL and 222000 µM | X-intercept ([7]; first application in IPM): 1.0 h | Flux of theophylline from PG after first application ([7]; first application in IPM, Th/PG 0.4 M, ±SD): 192 (38) mg/cm^2 /h × 10^3 | effect on flux of theophylline ([7]; vs IPM): Not significantly different from flux after first application

The next lines start with results.

qualitative order of stability to atmospheric moisture [1]: V=VI>>IV>III>II | degraded at 48 h [1]: 50 to 80% | trend in IPM solubility ([2]; IPM): III>IV>VI>II>V | solubility [2, 8]: 32500 µg/mL (≈ 122 mM) | solubility [2, 9]: > 100000 µg/mL
SMILES: CCN(CC)Cn1cnc2c1c(=O)n(C)c(=O)n2C [III, 7-(Diethylamino)methyltheophylline]
stability in IPM [1]: stable in solution but the IPM insoluble material was theophylline

degraded at 48 h [1]: 50 to 80% | solubility ([2]; isopropyl myristate, organic solvent or mixture, Solubility, IPM, both sonicated 3 hr and stirred 24 hr): 7600 µg/mL (≈ 32 mM) | solubility [2, 9]: > 100000 µg/mL
SMILES: CN(C)Cn1cnc2c1c(=O)n(C)c(=O)n2C [II]

qualitative order of stability to atmospheric moisture [1]: V=VI>>IV>III>II | trend in IPM solubility ([2]; IPM): III>IV>VI>II>V | solubility [2, 8]: 27600 µg/mL (≈ 94.1 mM) | solubility [2, 9]: > 100000 µg/mL
SMILES: CCCN(CCC)Cn1cnc2c1c(=O)n(C)c(=O)n2C [IV, 7-(Dipropylamino)methyltheophylline]
stability in IPM [1]: stable in solution but the IPM insoluble material was theophylline

qualitative order of stability to atmospheric moisture [1]: V=VI>>IV>III>II | Solubility, water (apparent) ([2]; 1.0 ml water (pH 7.0) added to 100 mg, sonicated 10 sec, not accurate, rapid decomposition): > 100000 µg/mL | trend in IPM solubility ([2]; IPM): III>IV>VI>II>V | solubility [2, 11]: 1300 µg/mL (≈ 4.65 mM) | solubility [2, 9]: ~100000 µg/mL (≈ 358 mM)
SMILES: Cn1c(=O)c2c(ncn2CN2CCOCC2)n(C)c1=O [V, 7-(4'-Morpholinyl)methyltheophylline]
stability in IPM [1]: stable in IPM either in the solid phase or in solution

qualitative order of stability to atmospheric moisture [1]: V=VI>>IV>III>II | trend in IPM solubility ([2]; IPM): III>IV>VI>II>V | solubility [2, 11]: 10700 µg/mL (≈ 40.6 mM) | solubility [2, 9]: > 100000 µg/mL
SMILES: Cn1c(=O)c2c(ncn2CN2CCCC2)n(C)c1=O [VI, 7-(Pyrrolidyl)methyltheophylline]
stability in IPM [1]: stable in IPM either in the solid phase or in solution

solubility [4]: > 100000 µg/mL and > 400000 µM | solubility at 48 h [4]: 950 µM | solubility at 48 h ([4]; ±SD): 230 µg/mL | Kp, steady-state phase [5]: 365 cm/h (× 10^3) | Kp, initial phase [5]: 149 cm/h (× 10^3) | pH dependence of hydrolysis rate [3]: hydrolyzed slower at basic pH | half-life ([3]; pH 6, Half-life of hydrolysis): 0.51 min | half-life [3, 12]: 0.74 min | half-life ([3]; pH 8, Half-life of hydrolysis): 0.87 min
SMILES: CN(C)CNc1nc(=O)n(CN(C)C)cc1F [XIII, Bis-N^4,1-(dimethylamino)methyl-5-fluorocytosine hydrate]
